# Laboratory results from ChEMBL document CHEMBL1201862, “PubChem BioAssay data set” (2004).
# Calls of active or inactive are those of the source.
# Legend:
# [1] = tested on: A549; assay: viability loss in A549 cells – cell-based, plate reader, cherry-pick samples, cytotoxicity control, dose response (AID 687028); assay type: functional; conditions: Homo sapiens
# [2] = viability loss in mouse NIH3T3 cells – cell-based, CellTiter-Glo luminescence, dry powder, cytotoxicity control for PglD inhibitor project, dose response (AID 652044); assay type: functional
# [3] = viability loss in LCL cells – cell-based, plate reader, dry powder, set 2, cytotoxicity control, dose response (AID 624367); assay type: functional
# [4] = general cell-killing toxicity readout – plate reader, dry powder samples, cytotoxicity control for PAX8 inhibitor project, dose response (AID 743021); assay type: functional, cell-based
# [5] = OVCAR8 cell viability loss – plate reader, dry powder samples, PAX8 project, dose response (AID 743197); assay type: functional, cell-based; conditions: OVCAR-8
# [6] = OVCAR-3 cell viability loss – plate reader, dry powder samples, PAX8 inhibitor project, dose response (AID 743044); assay type: functional, cell-based
# [7] = molecular target: Paired box protein Pax-8 (Homo sapiens, UniProt Q06710); assay: PAX8 transcriptional activity inhibition in RMG-I – RMG-I cells, luciferase, cherry-pick, dose response (AID 687027); assay type: functional, cell-based;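 further: luciferase reporter driven by Pax8 target thyroperoxidase promoter measured by SteadyGlo luminescence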
# Sequence of Paired box protein Pax-8 (Q06710 whole entry): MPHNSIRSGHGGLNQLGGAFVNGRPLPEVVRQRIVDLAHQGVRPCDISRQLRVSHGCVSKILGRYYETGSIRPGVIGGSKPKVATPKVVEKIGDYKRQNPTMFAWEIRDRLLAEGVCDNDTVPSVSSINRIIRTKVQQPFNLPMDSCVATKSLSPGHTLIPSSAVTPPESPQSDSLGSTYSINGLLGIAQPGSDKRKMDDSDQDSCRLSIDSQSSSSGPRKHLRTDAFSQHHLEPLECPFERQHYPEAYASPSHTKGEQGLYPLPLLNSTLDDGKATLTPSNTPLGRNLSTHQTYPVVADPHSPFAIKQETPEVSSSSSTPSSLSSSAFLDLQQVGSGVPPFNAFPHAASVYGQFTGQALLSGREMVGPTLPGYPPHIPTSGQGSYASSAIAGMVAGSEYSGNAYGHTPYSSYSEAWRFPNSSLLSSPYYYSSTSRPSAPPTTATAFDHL
# [8] = molecular target: Protein Wnt-3a (Mus musculus, UniProt P27467); assay: SAR analysis of small molecule antagonists of Gli-SUFU in a Wnt3a luminescent reporter assay.; assay type: functional
# Sequence of Protein Wnt-3a (P27467 whole entry): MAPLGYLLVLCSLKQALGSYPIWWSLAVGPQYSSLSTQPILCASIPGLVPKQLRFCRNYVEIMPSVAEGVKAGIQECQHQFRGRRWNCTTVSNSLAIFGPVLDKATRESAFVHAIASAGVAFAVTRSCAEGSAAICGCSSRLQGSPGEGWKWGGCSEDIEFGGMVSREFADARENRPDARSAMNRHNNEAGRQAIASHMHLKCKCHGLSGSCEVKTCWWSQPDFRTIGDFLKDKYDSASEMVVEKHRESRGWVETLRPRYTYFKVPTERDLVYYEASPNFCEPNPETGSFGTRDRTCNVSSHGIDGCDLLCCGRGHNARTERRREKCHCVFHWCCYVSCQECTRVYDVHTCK
# [9] = Cytotoxicity screening for potential Inhibitors of Bacterial Capsule Biogenesis (4).; assay type: functional
# [10] = general mammalian cell viability loss – inhibitor set, cherry-pick, set 2, cytotoxicity control for miR-122 modulator project, dose response (AID 720697); assay type: functional, cell-based
# [11] = general mammalian cell viability loss – activator set, cherry-pick, cytotoxicity control for miR-122 modulator project, dose response (AID 720690); assay type: functional, cell-based;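 further: HEK293T human cells scored for general mammalian cytotoxicity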
# [12] = COV434 cell viability loss – plate reader, dry powder, SA7, cytotoxicity control for PAX8 inhibitor project, dose response (AID 743145); assay type: functional, cell-based
# [13] = inhibitors acting on PAX2 in cells – cell-based, plate reader, dry powder samples, selectivity assay for PAX8 inhibitor project, dose response (AID 743048); assay type: functional;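 further: HEK293 cells carrying a WT1 promoter luciferase reporter driven by expressed Pax2; potency is for inhibition of Pax2 driven reporter signal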
# [14] = PAX8-dependent cell viability loss – plate reader, dry powder, dose response (AID 743049); assay type: functional, cell-based
# [15] = NIH3T3 cell viability loss – ATP luminescence, mouse fibroblasts, counter-screen, dose response (AID 2010); assay type: functional, cell-based;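 further: cells exposed to compound for about 90 hours before reading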
# [16] = NIH-3T3 fibroblast cytotoxicity, dose response, cytotoxicity control, cell-based, fluorescence, Alamar Blue, secondary assay (AID 2327); assay type: functional;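 further: NIH-3T3 mouse fibroblasts cultured with fluconazole at 8 µg/mL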
# [17] = Trypanosoma cruzi growth suppression in host cells – NIH3T3 host cells, beta-gal luminescence, confirmation (AID 2044); assay type: functional, cell-based;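 further: intracellular parasites grown in NIH/3T3 mouse fibroblasts as host cells; luminescent beta-galactosidase reporter signal from transgenic T. cruzi replicating inside host cells; inhibitors lower the luminescence signal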
# [18] = tested on: Cryptococcus neoformans; assay: PubChem AID 686997; assay type: functional, organism-based
# [19] = tested on: HeLa; assay: viability loss in HeLa cells – cell-based, ATP luminescence, cherry-pick samples, cytotoxicity control, dose response (AID 687004); assay type: functional; conditions: Homo sapiens
# [20] = fluconazole-exposed Candida albicans growth modulators – fluorescence, retest, confirmation (AID 2467); assay type: functional, cell-based
# [21] = tested on: Cryptococcus neoformans; assay: Cryptococcus growth inhibition by alamar blue – cell lysis, cherry-picks, replicate tests, mechanism study for C. neoformans antifungal project, dose response (AID 686999); assay type: functional, organism-based
# [22] = cells; assay type: functional, cell-based
# [23] = molecular target: T1, Probable nicotinate-nucleotide adenylyltransferase (Staphylococcus aureus (strain N315), UniProt P65502); assay type: functional, Staphylococcus aureus subsp. aureus N315; conditions: read-out: IC50_Mean;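 on IC50 Mean: confirmatory dose-response retesting of NadD inhibitor hits first found in an ultra-high-throughput screen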
# T1 sequence (P65502 whole entry): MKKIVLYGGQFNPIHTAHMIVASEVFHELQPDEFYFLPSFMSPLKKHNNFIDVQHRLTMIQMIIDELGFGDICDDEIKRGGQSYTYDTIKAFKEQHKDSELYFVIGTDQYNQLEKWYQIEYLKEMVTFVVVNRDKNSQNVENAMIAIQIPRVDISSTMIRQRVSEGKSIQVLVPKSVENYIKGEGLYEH
# [24] = molecular target: T2, Leucine aminopeptidase (Plasmodium falciparum 3D7, UniProt Q8IL11); assay: P. falciparum M17LAP inhibitors, primary screen, biochemical, fluorogenic H-Leu-NHMec substrate, 1536-well (AID 1619); assay type: functional
# T2 sequence (Q8IL11 whole entry): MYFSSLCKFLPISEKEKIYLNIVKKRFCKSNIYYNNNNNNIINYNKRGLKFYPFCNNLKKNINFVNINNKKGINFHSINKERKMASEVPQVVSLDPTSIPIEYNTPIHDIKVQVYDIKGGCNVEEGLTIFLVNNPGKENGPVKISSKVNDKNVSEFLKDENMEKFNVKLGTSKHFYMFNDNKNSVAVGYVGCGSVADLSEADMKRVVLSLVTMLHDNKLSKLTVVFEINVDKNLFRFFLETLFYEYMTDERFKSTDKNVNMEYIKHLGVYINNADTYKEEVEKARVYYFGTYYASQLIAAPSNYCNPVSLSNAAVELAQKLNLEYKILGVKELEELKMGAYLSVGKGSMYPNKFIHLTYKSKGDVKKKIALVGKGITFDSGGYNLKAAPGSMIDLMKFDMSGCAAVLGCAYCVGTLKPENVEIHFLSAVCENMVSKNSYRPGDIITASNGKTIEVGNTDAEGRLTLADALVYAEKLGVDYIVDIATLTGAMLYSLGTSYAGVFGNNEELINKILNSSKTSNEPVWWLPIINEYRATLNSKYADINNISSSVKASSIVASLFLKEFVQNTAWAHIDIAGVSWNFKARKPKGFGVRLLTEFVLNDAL
# [25] = molecular target: T1, Probable nicotinate-nucleotide adenylyltransferase; assay type: functional, Staphylococcus aureus subsp. aureus N315
smiles,measurement,setting,value
Cc1ccc2ccc(C(Nc3ccccc3)c3ccccc3)c(O)c2n1 (stereo not given),AC50,[1],17.9 µM (active)
O=C(C[C@@H]1CC[C@H]2[C@@H](COC[C@H](O)CN2C(=O)Nc2cccc(F)c2)O1)NCc1ccccc1F,AC50,[2],> 52 µM (inactive)
O=C(Nc1ccc(C(F)(F)F)cc1)Nc1ccc2c(c1)[C@@H]1C[C@H](CC(=O)N3CCc4ccccc4C3)O[C@@H](CO)[C@@H]1O2,AbsAC35,[3],85.24 µM
C[C@@H]1CCCCO[C@@H](CN(C)C(=O)c2ccccc2)[C@@H](C)CN([C@@H](C)CO)C(=O)c2cc(NC(=O)Nc3ccc(C(F)(F)F)cc3)ccc2O1,AC50,[4],44.3 µM (active)
same,AC50,[5],> 70 µM (inactive)
same,AC50,[6],7.75 µM (active)
same,AC50,[7],8.77 µM (active)
O=C(Nc1cc(N2CCCC2)ncn1)c1ccccc1F,IC50,[8],0.696 µM (active)
CC(C)(C)OC(=O)Nc1nc2ccc(C(=O)Nc3ccnc(Cl)c3)cc2s1,CC50,[9],> 300 µM (inactive)
C[C@@H]1CN([C@@H](C)CO)S(=O)(=O)c2ccc(-c3cncnc3)cc2O[C@@H]1CN(C)Cc1ccc(Oc2ccccc2)cc1,AC50,[10],22.7 µM (active)
same,AC50,[11],24.9 µM (active)
COCC(=O)N1[C@H](CO)[C@H](c2ccc(-c3cccnc3)cc2)[C@@H]1C#N,AC50,[12],0.00824 µM (active)
same,AC50,[13],> 32 µM (inactive)
same,AC50,[14],> 70 µM (inactive)
NC(=S)N/N=C/c1ccc(-c2cc(Cl)ccc2Cl)o1,EC50,[15],> 60 µM (not active)
same,EC50,[16],15.4 µM (active)
same,EC50,[17],0.627 µM (active)
same,AC50,[18],12.2 µM (active)
same,AC50,[19],17.6 µM (active)
same,EC50,[20],4.47 µM (active)
same,AC50,[21],18.1 µM (active)
CCc1nnc(NS(=O)(=O)c2ccc(/N=C/c3c(C)nn(-c4ccc(C)c(C)c4)c3O)cc2)s1,IC50,[22],70 µM (inactive)
same,IC50,[23],16.5 µM (active)
same,IC50,[24],14.4 µM (active)
same,IC50,[25],4.55 µM (active)
